How the values were obtained:
[1] = tested on: UVB radiation-induced skin tumors; experiment: UVB-induced skin carcinogenesis in high-risk mice, dietary treatment; type: in vivo, mouse; conditions: vs control
Protocol: Seeds of broccoli (Brassica oleracea italica, cv. DeCicco) were used to grow sprouts as described in Example 1. Growth was arrested after 3 days by plunging sprouts into boiling water and allowed to boil for ˜30 min. This treatment inactivated the endogenous sprout myrosinase and extracted the glucosinolates. […] The powder was mixed with the mouse diet (powdered AIN 76A) to give the equivalent of 10 μmol (low dose) or 50 μmol (high dose) of glucoraphanin per 3 grams of diet.
Body weights and formation of tumors larger than 1 mm in diameter were determined weekly.
UVB radiation was provided by a bank of UV lamps (FS72T12-UVB-HO, National Biological Corporation, Twinsburg, Ohio) emitting UVB (280-320 nm, 65% of total energy) and UVA (320-375 nm, 35% of total energy). The radiant dose of UVB was quantified with a UVB Daavlin Flex Control Integrating Dosimeter and further calibrated with an IL-1400 radiometer (International Light, Newburyport, Mass.).
The animals were irradiated for 20 weeks on Tuesdays and Fridays with a radiant exposure of 30 mJ/cm^2/session. […]
Tumor volumes were determined by measuring the height, length, and width of each mass that was larger than 1 mm in diameter. The average of the three measurements was used as the diameter and the volume was calculated (v=4πr^3/3). All mice were euthanized on the same day and the size and multiplicity of tumors was determined. […]

glutathione = conditions: topical extract containing 1 μmol sulforaphane, 24 h, vs vehicle
Text: Female SKH-1 hairless mice (4 weeks old) were obtained from Charles River Breeding Laboratories (Wilmington, Mass.) and were acclimatized in our animal facility for 2 weeks before the start of the experiment. The animals were kept on a 12-h light/12-h dark cycle, 35% humidity, and given free access to water and pelleted AIN 76A diet (Harlan TekLad, free of inducers). All animal experiments were in compliance with the National Institutes of Health Guidelines and were approved by the Johns Hopkins University Animal Care and Use Committee.
The animals were euthanized 24 h later and their dorsal skins were dissected using a rectangular template (2.5×5 cm) and frozen in liquid N2. […] Centrifugation at 14,000 g for 20 min at 4° C. yielded clear supernatant fractions, aliquots of which were used for determination of protein content, enzyme activity, and total glutathione levels as described below for the cell culture experiments.

PE murine keratinocytes = conditions: 5 μM for 24 h, UVA 10 J/cm^2, PE cells
Protocol: Reactive oxygen intermediates generated by the UV radiation were quantified by the fluorescent probe 2′,7′-dichlorodinitrofluorescein and fluorescence intensity was measured (expressed as a ratio of exposed to non-exposed cells).
PE cells (50,000 per well) were seeded into 24-well plates and grown for 48 h. […] On the day of the experiments, after removing the medium, the cells were incubated with 100 μM 2′,7′-dichlorodinitrofluorescein diacetate in 500 μl of fresh medium (Molecular Probes, Eugene, Oreg.) for 30 min. The medium containing the fluorescent probe was then removed, the cells were washed with DPBS, and exposed to UVA radiation (10 J/cm^2) Control cells were kept in the dark. Cells were detached with trypsin, suspended in 2.0 ml of DPBS, and the intensity of fluorescence was determined in cell suspensions at 520 nm with an excitation of 485 nm in 2-ml cuvettes in a Perkin-Elmer LS50 spectrofluorimeter.

SMILES | inhibition in total tumor volume per mouse ([1]; high dose) | inhibition in total tumor volume per mouse ([1]; low dose) | elevation of total glutathione levels in skin (glutathione) | reduction in reactive oxygen intermediates generated by UV radiation (PE murine keratinocytes)
C[S+]([O-])CCCC/C(=N\OS(=O)(=O)O)S[C@@H]1O[C@H](CO)[C@@H](O)[C@H](O)[C@H]1O (stereo partly shown) [glucoraphanin] | 70% | 70% | – | –
C[S+]([O-])CCCCN=C=S (stereo not shown) [sulforaphane] | – | – | ~15% | 50%

Reference: patent publication US20090247477A1, “Methods of suppressing uv light-induced skin carcinogenesis” (priority 2005, published 2009)
